# Reference: patent US8557992B2, “Heterocyclic fused phenanthrolinone M1 receptor positive allosteric modulators” (Merck Sharp & Dohme Corp., priority 2010, dated 2013)
# Biological target: T1, acetylcholine muscarinic M1 receptor (hM1) (Homo sapiens, UniProt P11229)
# T1 construct: expressed in transfected cells; host or cells: CHOnfat (CHO cells, Geneticin selection)
# T1 sequence (P11229 1-460): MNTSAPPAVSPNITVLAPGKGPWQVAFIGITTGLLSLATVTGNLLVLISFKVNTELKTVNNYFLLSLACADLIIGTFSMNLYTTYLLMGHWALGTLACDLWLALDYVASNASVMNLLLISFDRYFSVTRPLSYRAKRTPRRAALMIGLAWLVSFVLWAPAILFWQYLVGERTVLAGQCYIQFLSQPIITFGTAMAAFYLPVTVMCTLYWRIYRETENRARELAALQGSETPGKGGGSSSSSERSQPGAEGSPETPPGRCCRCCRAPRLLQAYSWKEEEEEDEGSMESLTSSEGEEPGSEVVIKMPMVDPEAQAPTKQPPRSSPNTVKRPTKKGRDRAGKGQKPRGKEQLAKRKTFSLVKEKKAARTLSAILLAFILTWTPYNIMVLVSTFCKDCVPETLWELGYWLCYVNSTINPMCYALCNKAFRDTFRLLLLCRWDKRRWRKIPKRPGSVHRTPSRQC
# Assay: FLIPR intracellular calcium assay for M1 positive allosteric modulator activity in CHOnfat/hM1 cells
# Type: cell-based
# Conditions: 4 min preincubation, then acetylcholine EC20 (3 nM final), calculated from FLIPR values, read-out: IP Value (inflection point)
# Experimental: The assay studies the effect of one or several concentrations of test compounds on basal or acetylcholine-stimulated Ca^2+ levels using FLIPR.
# Compounds are prepared and subjected to a preincubation period of 4 min. Thereafter, a single EC20 concentration of acetylcholine is added to each well (3 nM final). The intracellular Ca^2+ level of each sample is measured and compared to an acetylcholine control to determine any modulatory activity.
# Cells: CHOnfat/hM1, hM2, hM3 or hM4 cells are plated 24 hr before the assay at a density of 18,000 cells/well (100 μL) in a 384 well plate. CHOnfat/hM1 and CHOnfat/hM3 Growth Medium: 90% DMEM (Hi Glucose); 10% HI FBS; 2 mM L-glutamine; 0.1 mM NEAA; Pen-Strep; and 1 mg/ml Geneticin, are added. For M2Gqi5CHOnfat and M4Gqi5CHOnfat cells, an additional 600 ug/ml hygromycin is added.
# Equipment: 384 well plate, 120 μL addition plate; 96-well Whatman 2 ml Uniplate Incubator, 37° C., 5% CO2; Skatron EMBLA-384 Plate Washer; Multimek Pipetting System; Genesis Freedom 200 System; Mosquito System; Temo Nanolitre Pipetting System; and FLIPR^384 Fluorometric Imaging Plate Reader System are used.
# Buffers. Assay Buffer: […] Balanced Salt Solution, with 20 mM Hepes, 2.5 mM Probenecid (Sigma P-8761) first dissolved in 1 N NaOH, 1% Bovine Serum Albumin (Sigma A-9647). Dye Loading Buffer: Assay Buffer plus 1% Fetal Bovine Serum and Fluo-4AM/Pluronic Acid Mixture. 2 mM Fluo-4AM ester stock in DMSO (Molecular Probes F-14202) Concentration of 2 μM in buffer for a final concentration of 1 μM in Assay. 20% Pluronic Acid Solution stock, with concentration of 0.04% in Buffer, 0.02% in Assay.
# 65 μL of 2 mM Fluo-4AM are mixed with 130 μL of 20% Pluronic Acid. The resulting solution and 650 μL FBS is added to the assay buffer for a total volume of 65 mL. Positive Controls: 4-Br-A23187: 10 mM in DMSO; final concentration 10 μM. Acetylcholine: 10 mM in water, working stock at both 20 μM and 30 μM in assay buffer, final concentration of 10 μM. This is used to check the maximum stimulation of the CHOK1/hM1 cells. 20 μM (2×) acetylcholine is added in the preincubation part of the assay, and the 30 μM (3×) stock is added in the second part. (EC20) Acetylcholine: 10 mM in water, working stock of 9 nM (3×), and final concentration in assay is 3 nM. This is used after the preincubation with test compounds. Addition of the EC20 Acetylcholine to each well with a test compound will ascertain any modulator activity. 24 wells contain 3 nM Acetylcholine alone as a control.
# Screening Plate Compounds are titrated in 96-well plates (columns 2-11), 100% DMSO, started at a concentration of 15 mM (150× stock concentration), and 3-fold serial dilutions using Genesis Freedom200 System. Four 96-well plates are combined into a 384-well plate using Mosquito Nanolitre Pipetting System by transferring 1 μl of serial diluted compounds to each well, and 1 mM acetylcholine (100× stock concentration) were added as a control. Using Temo, 49 μl assay buffer is added to each well of the 384-well plate right before assay.
# In a 96-well Whatman 2 ml Uniplate, 9 nM Acetylcholine (3×) is pipetted into wells corresponding to the screening compounds, and into control wells. The 30 μM acetylcholine control (3×) is added into control wells, and the 3× agonist plate is transferred into a 384 well plate.
# Cells are washed three times with 100 μL of buffer, leaving 30 μL of buffer in each well. Using Multimek, 30 μL of Dye Loading Buffer is added into each well and incubated at 37° C., 5% CO2 for up to one hr.
# After 60 min, the cells are washed three times with 100 μL of buffer, leaving 30 μL of buffer in each well. The cell plate, screening plate, and agonist addition plates are placed on the platform in the FLIPR and the door closed. A signal test to check background fluorescence and basal fluorescence signal is performed. Laser intensity is adjusted if necessary. […]
row,Structure (SMILES),EC50 [nM]
1,"O=c1c2cc(Cc3ccc(Cl)nc3)c3cccnc3c2ccn1[C@H]1CCCC[C@@H]1O [Example 1, 5-[(6-Chloropyridin-3-yl)methyl]-8-[(1S,2S)-2-hydroxycyclohexyl]-1,8-phenanthrolin-7(8H)-one]",23.5
2,"COc1ccc(Cc2cc3c(=O)n([C@H]4CCOC[C@@H]4O)ccc3c3ncccc23)cn1 [Example 2, 1,5-Anhydro-2,3-dideoxy-3-{5-[(6-methoxypyridin-3-yl)methyl]-7-oxo-1,8-phenanthrolin-8(7H)-yl}-L-threo-pentitol]",20.6
3,CSc1ccc(Cc2cc3c(=O)n([C@H]4CCCC[C@@H]4O)ccc3c3ncccc23)cn1 [Example 3],15
4,O=c1c2cc(Cc3ccnc(OC(F)F)c3)c3cccnc3c2ccn1[C@H]1CCCC[C@@H]1O [Example 4],72
5,Cn1cc(-c2ccc(Cc3cc4c(=O)n([C@H]5CCCC[C@@H]5O)ccc4c4ncccc34)cn2)cn1 [Example 5],1.7
6,"O=c1c2cc(Cc3cccnc3)c3cccnc3c2ccn1[C@H]1CCCC[C@@H]1O [Example 6, 8-[(1S,2S)-2-hydroxycyclohexyl]-5-(pyridin-3-ylmethyl)-1,8-phenanthrolin-7(8H)-one]",28.6

# Same assay, conditions: Table 1, unit inferred, potentiation of acetylcholine EC20 (3 nM final), read-out: H Pot.
row,Structure (SMILES),EC50 [nM]
1,COc1ccc(Cc2cc3c(=O)n([C@H]4CCCC[C@@H]4O)ccc3c3ncccc23)cc1 [Example 7],21
2,COc1ccc(Cc2cc3c(=O)n([C@H]4CCOC[C@@H]4O)ccc3c3ncccc23)cc1 [Example 8],6.2
3,COc1ccc(Cc2cc3c(=O)n([C@H]4CCCC[C@@H]4O)ccc3c3ncccc23)cn1 [Example 9],22.5
4,COc1cc(Cc2cc3c(=O)n([C@H]4CCCC[C@@H]4O)ccc3c3ncccc23)ccn1 [Example 10],21.9
5,O=c1c2cc(Cc3ccnc(Cl)c3)c3cccnc3c2ccn1[C@H]1CCCC[C@@H]1O [Example 11],20.5
6,Cc1cc(Cc2cc3c(=O)n([C@H]4CCCC[C@@H]4O)ccc3c3ncccc23)ccn1 [Example 12],24
7,O=c1c2cc(Cc3ccc(OC(F)F)nc3)c3cccnc3c2ccn1[C@H]1CCCC[C@@H]1O [Example 13],55
8,Cc1cc(Cc2cc3c(=O)n([C@H]4CCOC[C@@H]4O)ccc3c3ncccc23)ccn1 [Example 14],16.8
